Assay results reported in patent US9670202B2, “Substituted triazolopyridines” (BAYER PHARMA AKTIENGESELLSCHAFT, priority 2013, dated 2017).
Structures can show the parent of a compound that is named as a salt.

What follows are compounds tested against human kinase Mps-1 (Homo sapiens (Human), UniProt P33981) (assay: Mps-1 kinase assay (TR-FRET, 10 μM ATP)). Conditions: N-terminally GST-tagged human full length recombinant Mps-1, read-out: Mps-1 Inhibition, IC50 (Assay with 10 μM ATP).
Type: biochemical
Description: The human kinase Mps-1 phosphorylates a biotinylated substrate peptide. Detection of the phosphorylated product is achieved by time-resolved fluorescence resonance energy transfer (TR-FRET) from Europium-labelled anti-phospho-Serine/Threonine antibody as donor to streptavidin labelled with cross-linked allophycocyanin (SA-XLent) as acceptor. Compounds are tested for their inhibition of the kinase activity.
N-terminally GST-tagged human full length recombinant Mps-1 kinase (purchased from Invitrogen, Karslruhe, Germany, cat. no PV4071) was used. As substrate for the kinase reaction a biotinylated peptide of the amino-acid sequence […]
The concentration of Mps-1 in the assay was adjusted to the activity of the enzyme lot and was chosen appropriate to have the assay in the linear range, typical enzyme concentrations were in the range of about 1 nM (final conc. in the 5 μl assay volume).
The resulting mixture was incubated 1 h at 22° C. to allow the binding of the phosphorylated peptide to the anti-phospho(Ser/Thr)-Europium-antibody. Subsequently the amount of phosphorylated substrate was evaluated by measurement of the resonance energy transfer from the Europium-labelled anti-phospho(Ser/Thr) antibody to the Streptavidin-XLent. Therefore, the fluorescence emissions at 620 nm and 665 nm after excitation at 350 nm was measured in a Viewlux TR-FRET reader (PerkinElmer LAS, Rodgau-Jügesheinn, Germany). The “blank-corrected normalized ratio” (a Viewlux specific readout, similar to the traditional ratio of the emissions at 665 nm and at 622 nm, in which blank and Eu-donor crosstalk are subtracted from the 665 nm signal before the ratio is calculated) was taken as the measure for the amount of phosphorylated substrate.

Sequence of human kinase Mps-1 (P33981 whole entry): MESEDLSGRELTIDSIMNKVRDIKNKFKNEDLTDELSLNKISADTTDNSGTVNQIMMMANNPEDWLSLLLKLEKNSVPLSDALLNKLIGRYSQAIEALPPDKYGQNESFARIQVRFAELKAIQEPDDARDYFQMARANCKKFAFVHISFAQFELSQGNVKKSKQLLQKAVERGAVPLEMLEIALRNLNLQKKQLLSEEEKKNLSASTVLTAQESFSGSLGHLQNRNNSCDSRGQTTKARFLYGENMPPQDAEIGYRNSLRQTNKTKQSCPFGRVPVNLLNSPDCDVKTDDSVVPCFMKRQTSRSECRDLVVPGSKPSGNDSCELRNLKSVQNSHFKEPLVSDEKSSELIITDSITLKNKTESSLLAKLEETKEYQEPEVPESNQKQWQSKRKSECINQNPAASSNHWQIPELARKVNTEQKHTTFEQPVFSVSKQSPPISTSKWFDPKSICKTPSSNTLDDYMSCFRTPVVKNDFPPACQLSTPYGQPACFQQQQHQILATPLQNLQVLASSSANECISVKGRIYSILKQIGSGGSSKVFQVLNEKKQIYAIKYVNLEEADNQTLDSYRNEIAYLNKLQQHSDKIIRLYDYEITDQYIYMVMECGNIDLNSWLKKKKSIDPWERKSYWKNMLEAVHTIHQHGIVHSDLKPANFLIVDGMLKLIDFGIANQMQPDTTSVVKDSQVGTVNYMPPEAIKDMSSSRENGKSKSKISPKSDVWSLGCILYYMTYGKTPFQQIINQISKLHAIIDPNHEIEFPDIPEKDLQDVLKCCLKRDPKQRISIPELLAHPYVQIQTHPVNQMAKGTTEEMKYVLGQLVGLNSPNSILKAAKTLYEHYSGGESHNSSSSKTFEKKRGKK

| IC50 | Compound |
| --- | --- |
| 3.1 nM | CCNC(=O)c1ccc(Nc2nc3ccc(N4CCN(C(=O)NCc5ccc(F)cc5)CC4)cn3n2)c(OCC)c1 [Example 01.01, 4-(2-{[2-ethoxy-4-(ethylcarbamoyl)phenyl]amino}[1,2,4]triazolo[1,5-a]-pyridin-6-yl)-N-(4-fluorobenzyl)piperazine-1-carboxamide] |
| 5.6 nM | CC(C)(C)NC(=O)c1ccc(Nc2nc3ccc(N4CCN(C(=O)NCc5ccc(F)cc5)CC4)cn3n2)c(OCC(F)(F)F)c1 [Example 01.02, 4-(2-{[4-(tert-butylcarbamoyl)-2-(2,2,2-trifluoroethoxy)phenyl]amino}-[1,2,4]triazolo[1,5-a]pyridin-6-yl)-N-(4-fluorobenzyl)piperazine-1-carboxamide] |
| 7.9 nM | CCN(CC)C(=O)c1ccc(Nc2nc3ccc(N4CCN(C(=O)NCc5ccc(F)cc5)CC4)cn3n2)c(OC)c1 [Example 01.03, 4-(2-{[4-(diethylcarbamoyl)-2-methoxyphenyl]amino}[1,2,4]triazolo[1,5-a]pyridin-6-yl)-N-(4-fluorobenzyl)piperazine-1-carboxamide] |
| 2.6 nM | CCOc1cc(C(=O)N2CCOCC2)ccc1Nc1nc2ccc(N3CCN(C(=O)NCc4ccc(F)cc4)CC3)cn2n1 [Example 01.04, 4-(2-{[2-ethoxy-4-(morpholin-4-ylcarbonyl)phenyl]amino}[1,2,4]triazolo-[1,5-a]pyridin-6-yl)-N-(4-fluorobenzyl)piperazine-1-carboxamide] |
| 9.7 nM | CCCOc1cc(C(=O)N(CC)CC)ccc1Nc1nc2ccc(N3CCN(C(=O)NCc4ccc(F)cc4)CC3)cn2n1 [Example 01.05, 4-(2-{[4-(diethylcarbamoyl)-2-propoxyphenyl]amino}[1,2,4]triazolo[1,5-a]pyridin-6-yl)-N-(4-fluorobenzyl)piperazine-1-carboxamide] |
| 28.5 nM | CCN(CC)C(=O)c1ccc(Nc2nc3ccc(N4CCN(C(=O)NCc5ccc(F)cc5)CC4)cn3n2)c(OCC(C)C)c1 [Example 01.06, 4-(2-{[4-(diethylcarbamoyl)-2-(2-methylpropoxy)phenyl]amino}[1,2,4]-triazolo[1,5-a]pyridin-6-yl)-N-(4-fluorobenzyl)piperazine-1-carboxamide trifluoroacetate] |
| 20.6 nM | CCN(CC)C(=O)c1ccc(Nc2nc3ccc(N4CCN(C(=O)NCc5ccc(F)cc5)CC4)cn3n2)c(OCC2CC2)c1 [Example 01.07, 4-(2-{[2-(cyclopropylmethoxy)-4-(diethylcarbamoyl)phenyl]amino}[1,2,4]-triazolo[1,5-a]pyridin-6-yl)-N-(4-fluorobenzyl)piperazine-1-carboxamide] |
| 57 nM | CCN(CC)C(=O)c1ccc(Nc2nc3ccc(N4CCN(C(=O)NCc5ccc(F)cc5)CC4)cn3n2)c(OCCOC)c1 [Example 01.08, 4-(2-{[4-(diethylcarbamoyl)-2-(2-methoxyethoxy)phenyl]amino}[1,2,4]-triazolo[1,5-a]pyridin-6-yl)-N-(4-fluorobenzyl)piperazine-1-carboxamide] |
| 1.7 nM | CCN(CC)C(=O)c1ccc(Nc2nc3ccc(N4CCN(C(=O)NCc5ccc(F)cc5)CC4)cn3n2)c(OCC(F)(F)F)c1 [Example 01.09, 4-(2-{[4-(diethylcarbamoyl)-2-(2,2,2-trifluoroethoxy)phenyl]amino}[1,2,4]-triazolo[1,5-a]pyridin-6-yl)-N-(4-fluorobenzyl)piperazine-1-carboxamide trifluoroacetate] |
| 9.2 nM | COc1cc(N2CCN(C)CC2)ccc1Nc1nc2ccc(N3CCN(C(=O)NCc4ccc(F)cc4)CC3)cn2n1 [Example 01.10, N-(4-fluorobenzyl)-4-(2-{[2-methoxy-4-(4-methylpiperazin-1-yl)phenyl]-amino}[1,2,4]triazolo[1,5-a]pyridin-6-yl)piperazine-1-carboxamide] |
| 45.6 nM | COc1cc(Nc2nc3ccc(N4CCN(C(=O)NCc5ccc(F)cc5)CC4)cn3n2)ccc1C(=O)N1CCOCC1 [Example 01.11, N-(4-fluorobenzyl)-4-(2-{[3-methoxy-4-(morpholin-4-ylcarbonyl)phenyl]-amino}[1,2,4]triazolo[1,5-a]pyridin-6-yl)piperazine-1-carboxamide] |
| 18.6 nM | COc1ncccc1Nc1nc2ccc(N3CCN(C(=O)NCc4ccc(F)cc4)CC3)cn2n1 [Example 01.12, N-(4-fluorobenzyl)-4-{2-[(2-methoxypyridin-3-yl)amino][1,2,4]triazolo[1,5-a]pyridin-6-yl}piperazine-1-carboxamide] |
| 8.9 nM | CCOc1ncccc1Nc1nc2ccc(N3CCN(C(=O)NCc4ccc(F)cc4)CC3)cn2n1 [Example 01.13, 4-{2-[(2-ethoxypyridin-3-yl)amino][1,2,4]triazolo[1,5-a]pyridin-6-yl}-N-(4-fluorobenzyl)piperazine-1-carboxamide] |
| 8 nM | N#Cc1ccccc1Nc1nc2ccc(N3CCN(C(=O)NCc4ccc(F)cc4)CC3)cn2n1 [Example 01.14, 4-{2-[(2-cyanophenyl)amino][1,2,4]triazolo[1,5-a]pyridin-6-yl}-N-(4-fluoro-benzyl)piperazine-1-carboxamide] |
| 32.2 nM | CCOc1cc(C(=O)N2CCOCC2)ccc1Nc1nc2ccc(N3CCC(C(=O)NCc4ccc(F)cc4)CC3)cn2n1 [Example 02.01, 1-(2-{[2-ethoxy-4-(morpholin-4-ylcarbonyl)phenyl]amino}[1,2,4]triazolo-[1,5-a]pyridin-6-yl)-N-(4-fluorobenzyl)piperidine-4-carboxamide] |
| 68.8 nM | CCNC(=O)c1ccc(Nc2nc3ccc(N4CCC(C(=O)NCC5CC5)CC4)cn3n2)c(OCC)c1 [Example 03.01, N-(cyclopropylmethyl)-1-(2-{[2-ethoxy-4-(ethylcarbamoyl)phenyl]amino}-[1,2,4]triazolo[1,5-a]pyridin-6-yl)piperidine-4-carboxamide] |
| 67.8 nM | CCOc1cc(C(=O)N2CCOCC2)ccc1Nc1nc2ccc(N3CCC(C(=O)NCC4CC4)CC3)cn2n1 [Example 03.02, N-(cyclopropylmethyl)-1-(2-{[2-ethoxy-4-(morpholin-4-ylcarbonyl)phenyl]-amino}[1,2,4]triazolo[1,5-a]pyridin-6-yl)piperidine-4-carboxamide] |
| 7.1 nM | CCNC(=O)c1ccc(Nc2nc3ccc(N4CCC(NC(=O)Cc5ccc(F)cc5)CC4)cn3n2)c(OCC)c1 [Example 04.01, 3-ethoxy-N-ethyl-4-{[6-(4-{[(4-fluorophenyl)acetyl]amino}piperidin-1-yl)-[1,2,4]triazolo[1,5-a]pyridin-2-yl]amino}benzamide] |
| 12.8 nM | CCOc1cc(C(=O)N2CCOCC2)ccc1Nc1nc2ccc(N3CCC(NC(=O)Cc4ccc(F)cc4)CC3)cn2n1 [Example 04.02, N-[1-(2-{[2-ethoxy-4-(morpholin-4-ylcarbonyl)phenyl]amino}[1,2,4]-triazolo[1,5-a]pyridin-6-yl)piperidin-4-yl]-2-(4-fluorophenyl)acetamide] |
| 32.8 nM | CCOc1ncccc1Nc1nc2ccc(N3CCC(NC(=O)Cc4ccc(F)cc4)CC3)cn2n1 [Example 04.03, N-(1-{2-[(2-ethoxypyridin-3-yl)amino][1,2,4]triazolo[1,5-a]pyridin-6-yl}-piperidin-4-yl)-2-(4-fluorophenyl)acetamide] |
| 46.9 nM | O=C(NCc1ccc(F)cc1)NC1CCN(c2ccc3nc(Nc4ccc(C(=O)N5CCOCC5)cc4OCC(F)(F)F)nn3c2)C1 (stereo not drawn) [Example 05.01, 1-(4-fluorobenzyl)-3-[1-(2-{[4-(morpholin-4-ylcarbonyl)-2-(2,2,2-trifluoroethoxy)phenyl]amino}[1,2,4]triazolo[1,5-a]pyridin-6-yl)pyrrolidin-3-yl]urea] |
